This note sets out measurements from US12304910B2, “Janus kinase (JAK) family inhibitor, preparation of same, and applications thereof” (JIANGSU VCARE PHARMATECH CO., LTD., priority 2019, dated 2025).

One assay has as its target T1, JAK3 (Homo sapiens, UniProt P52333).
T1 sequence (P52333 1-1124): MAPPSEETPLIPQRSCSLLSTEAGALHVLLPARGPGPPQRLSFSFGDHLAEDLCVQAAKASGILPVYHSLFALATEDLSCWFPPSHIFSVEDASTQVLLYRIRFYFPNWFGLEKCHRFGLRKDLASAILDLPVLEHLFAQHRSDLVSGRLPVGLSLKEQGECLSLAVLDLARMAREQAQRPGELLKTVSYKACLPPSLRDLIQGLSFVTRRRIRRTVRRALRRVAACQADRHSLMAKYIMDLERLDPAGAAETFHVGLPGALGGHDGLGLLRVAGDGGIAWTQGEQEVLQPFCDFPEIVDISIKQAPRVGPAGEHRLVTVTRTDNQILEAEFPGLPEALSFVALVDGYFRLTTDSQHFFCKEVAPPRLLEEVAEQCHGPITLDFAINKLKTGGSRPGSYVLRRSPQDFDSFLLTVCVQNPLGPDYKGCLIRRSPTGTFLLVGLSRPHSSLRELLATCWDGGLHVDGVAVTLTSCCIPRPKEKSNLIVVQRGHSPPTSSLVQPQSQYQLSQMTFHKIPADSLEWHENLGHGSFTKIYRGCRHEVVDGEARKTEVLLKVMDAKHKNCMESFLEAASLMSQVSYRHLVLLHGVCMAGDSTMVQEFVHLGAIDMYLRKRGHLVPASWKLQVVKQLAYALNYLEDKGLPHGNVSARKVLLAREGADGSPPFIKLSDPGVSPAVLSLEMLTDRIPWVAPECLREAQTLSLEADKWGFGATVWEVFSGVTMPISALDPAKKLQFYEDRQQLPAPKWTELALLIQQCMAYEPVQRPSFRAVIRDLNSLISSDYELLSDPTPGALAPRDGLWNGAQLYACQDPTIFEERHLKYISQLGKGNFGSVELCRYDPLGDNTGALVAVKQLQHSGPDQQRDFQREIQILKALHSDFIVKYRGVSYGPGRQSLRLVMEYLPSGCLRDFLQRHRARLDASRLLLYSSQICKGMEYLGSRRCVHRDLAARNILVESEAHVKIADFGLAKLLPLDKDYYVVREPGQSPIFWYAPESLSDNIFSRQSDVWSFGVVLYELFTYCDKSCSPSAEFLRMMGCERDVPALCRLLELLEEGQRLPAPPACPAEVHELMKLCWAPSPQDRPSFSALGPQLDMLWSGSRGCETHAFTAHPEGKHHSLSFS
The assay is described as follows: Kinase activity test (γ33P-ATP isotopic method), JAK3. It is filed as biochemical. The following applies: 33P-ATP 10 μM, 2 h reaction. The procedure:
(§1) This experiment adopted a γ^33p-ATP isotopic test method to test the inhibitory effect of a compound on kinases JAK1, JAK2, JAK3 and TYK2, and obtained a half inhibitory concentration IC50 of the compound for inhibiting activity of the kinase.
(§2) 20 mM 4-hydroxyethylpiperazine ethanesulfonic acid buffer (Hepes, pH 7.5), 10 mM magnesium chloride (MgCl2), 1 mM ethylene glycol diethyl ether diamine tetraacetic acid (EGTA), 0.02% dodecyl polyethylene glycol ether (Brij35), 0.02 mg/ml bovine serum albumin (BSA), 0.1 mM sodium vanadate (Na3VO4), 2 mM dithiothreitol (DTT), and 1% dimethylsulfoxide (DMSO).
(§3) A compound is dissolved with 100% DMSO to a specific concentration, and then subjected to gradient dilution by an automatic sampling device to obtain the samples to be tested with different concentrations (DMSO solutions).
(§4) 3.1 diluting the reaction substrate with the basic reaction buffer;
(§5) 3.2 adding the kinase into the substrate solution, and gently mixing well;
(§6) 3.3 adding, by the automatic sampling system, the 100% DMSO diluted compounds with different concentrations into the kinase solution, and incubating for 20 min at room temperature; and
(§7) 3.4 adding ^33p-ATP (10 μM, 10 μCi/μl) at room temperature to initiate the kinase reaction for a duration of 2 h.
(§8) The unreacted ATP and the reaction-generated […] in the reaction were removed by an ion exchange filtering system, and then the amount of radioactivity of ^33p isotope in the substrate was detected.
(§9) According to the amount of radioactivity, the kinase activities in the systems added with the inhibitors of different concentrations were calculated, to obtain the inhibitors' effects of the compounds of different concentrations on the kinase activity; and fitting was performed with graphpad prism to obtain the inhibitory IC50 values of the compounds.

The test system of assay [1] is DSS induced mouse ulcerative colitis model. As to the kind of experiment: Efficacy test in DSS induced mouse ulcerative colitis model. It counts as in vivo. From the text:
Mice of 6-7 weeks old were randomly grouped, 6 mice per group. Purified water was provided ad libitum to the mice in a negative control group, and a 2% solution of dextran sulfate sodium (DSS) was provided ad libitum to the mice in other groups, for 7 consecutive days. During the modeling, medication was given according to the groups, once a day for 7 days (the treatment groups and the mouse numbers can be adjusted according to the specific situation). Within 8-10 days later, the DSS-containing water was replaced with purified water, provided ad libitum to the mice. The normal administration continued for 3 days.
From the first day of administration, the general conditions such as metal state, eating, drinking and activities of the mice were respectively observed every day, the mice were weighed every day, and the animal stools were collected, evaluated for their traits and subjected to the occult blood test. The disease activity index (DAI) of experimental animals within 1-10 days were comprehensively assessed.
Scoring was performed according to the above-mentioned standards. The disease activity index (DAI) of each mouse was obtained by summing the scores of weight loss, stool trait and occult blood condition, to evaluate the disease activity. DAI=(score of weight loss+score of stool trait+score of bloody stool)/3, ranging from 0-4.
The experimental data was processed statistically, and the data are all expressed as mean±SD or mean±SME. The SPSS13.0 software was used for statistical analysis, and the differences among the groups were compared with t test (equal variance) or t′ test (unequal variance).

The target in another assay is JAK1 (Homo sapiens, UniProt P23458). As to the kind of experiment: Kinase activity test (γ33P-ATP isotopic method), JAK1. It is filed as biochemical. The procedure: as §1, §2, §3, §4, §5, §6, §7, §8, §9
JAK1, sequence (P23458 whole entry): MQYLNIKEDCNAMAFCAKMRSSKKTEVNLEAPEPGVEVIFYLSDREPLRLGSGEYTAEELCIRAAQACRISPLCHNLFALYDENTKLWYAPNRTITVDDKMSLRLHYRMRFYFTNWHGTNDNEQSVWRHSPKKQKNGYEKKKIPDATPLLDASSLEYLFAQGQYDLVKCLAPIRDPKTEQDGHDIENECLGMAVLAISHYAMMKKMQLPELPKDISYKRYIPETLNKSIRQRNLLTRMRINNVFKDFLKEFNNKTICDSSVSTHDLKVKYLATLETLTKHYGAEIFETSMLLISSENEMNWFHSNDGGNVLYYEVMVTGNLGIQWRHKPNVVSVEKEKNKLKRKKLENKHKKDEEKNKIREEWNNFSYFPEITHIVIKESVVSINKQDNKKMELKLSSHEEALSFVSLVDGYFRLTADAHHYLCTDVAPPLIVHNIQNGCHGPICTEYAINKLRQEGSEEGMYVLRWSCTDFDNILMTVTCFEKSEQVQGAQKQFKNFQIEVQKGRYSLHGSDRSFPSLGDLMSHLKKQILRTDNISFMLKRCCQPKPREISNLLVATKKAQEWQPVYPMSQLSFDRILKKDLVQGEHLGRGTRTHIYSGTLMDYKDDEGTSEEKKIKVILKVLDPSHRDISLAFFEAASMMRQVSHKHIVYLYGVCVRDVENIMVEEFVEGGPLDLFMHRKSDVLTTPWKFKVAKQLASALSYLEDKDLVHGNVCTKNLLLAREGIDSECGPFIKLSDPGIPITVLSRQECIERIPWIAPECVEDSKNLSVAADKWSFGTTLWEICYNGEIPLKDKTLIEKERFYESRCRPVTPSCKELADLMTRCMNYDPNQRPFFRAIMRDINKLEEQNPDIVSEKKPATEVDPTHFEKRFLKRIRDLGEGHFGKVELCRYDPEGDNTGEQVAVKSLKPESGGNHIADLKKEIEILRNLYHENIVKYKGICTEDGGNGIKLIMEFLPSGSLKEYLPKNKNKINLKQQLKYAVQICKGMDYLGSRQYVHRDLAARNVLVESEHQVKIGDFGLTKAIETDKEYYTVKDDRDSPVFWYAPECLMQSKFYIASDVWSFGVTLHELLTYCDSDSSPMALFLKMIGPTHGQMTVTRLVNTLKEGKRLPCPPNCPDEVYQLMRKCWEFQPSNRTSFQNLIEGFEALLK
Another assay addresses TYK2 (Homo sapiens, UniProt P29597). The assay is described as follows: Kinase activity test (γ33P-ATP isotopic method), TYK2. It is filed as biochemical. The note with it: 33P-ATP 10 μM, 2 h reaction. Here is the method: as §1, §2, §3, §4, §5, §6, §7, §8, §9

Usually IC50 stands for the concentration that gives 50% inhibition.

TYK2, sequence (P29597 whole entry): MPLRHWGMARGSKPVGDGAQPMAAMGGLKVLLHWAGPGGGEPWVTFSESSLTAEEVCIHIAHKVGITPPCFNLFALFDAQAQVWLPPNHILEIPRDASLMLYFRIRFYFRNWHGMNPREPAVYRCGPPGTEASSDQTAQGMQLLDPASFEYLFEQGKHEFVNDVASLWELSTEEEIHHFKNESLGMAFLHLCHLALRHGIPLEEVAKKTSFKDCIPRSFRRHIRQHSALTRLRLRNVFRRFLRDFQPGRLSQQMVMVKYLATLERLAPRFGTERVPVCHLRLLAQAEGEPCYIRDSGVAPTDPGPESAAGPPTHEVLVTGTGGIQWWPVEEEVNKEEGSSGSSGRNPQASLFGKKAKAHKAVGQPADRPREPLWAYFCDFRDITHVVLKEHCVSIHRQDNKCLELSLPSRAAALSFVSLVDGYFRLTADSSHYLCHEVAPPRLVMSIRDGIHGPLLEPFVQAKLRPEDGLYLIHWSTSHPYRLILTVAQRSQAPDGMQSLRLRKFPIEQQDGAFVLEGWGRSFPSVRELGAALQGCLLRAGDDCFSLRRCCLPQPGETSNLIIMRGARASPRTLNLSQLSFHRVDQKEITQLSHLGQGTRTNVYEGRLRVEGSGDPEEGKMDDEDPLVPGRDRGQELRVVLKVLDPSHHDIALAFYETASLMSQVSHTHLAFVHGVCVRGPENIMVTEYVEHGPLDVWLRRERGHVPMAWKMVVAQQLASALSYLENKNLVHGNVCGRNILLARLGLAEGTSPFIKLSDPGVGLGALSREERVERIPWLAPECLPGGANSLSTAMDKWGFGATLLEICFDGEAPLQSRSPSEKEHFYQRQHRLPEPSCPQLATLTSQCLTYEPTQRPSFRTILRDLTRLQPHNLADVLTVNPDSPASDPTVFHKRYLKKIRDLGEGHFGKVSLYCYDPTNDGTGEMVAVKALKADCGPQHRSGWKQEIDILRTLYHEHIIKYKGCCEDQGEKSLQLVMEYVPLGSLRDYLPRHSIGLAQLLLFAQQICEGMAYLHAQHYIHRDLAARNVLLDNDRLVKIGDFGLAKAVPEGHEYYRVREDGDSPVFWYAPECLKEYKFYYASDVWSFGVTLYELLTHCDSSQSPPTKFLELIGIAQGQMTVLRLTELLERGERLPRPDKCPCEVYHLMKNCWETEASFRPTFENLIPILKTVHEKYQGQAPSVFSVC

Turning to `NC(=O)c1cnc2[nH]ccc2c1NN1CCC[C@H](C(=O)NCC(F)F)C1` [Example 2, (S)-4-(3-(2,2-difluoroethylcarbamoyl)piperidine-1-amino)-1H-7-azaindole-5-carboxamide], the IC50 at JAK3 was 3.1 nM; at JAK1 (33P-ATP 10 μM, 2 h reaction), 0.15 nM; against TYK2, 1.49 nM. Further, the “DAI score on day 8” value in assay [1] (5 mg/kg group, once a day, mouse DSS model, DAI range 0-4) is on record as 1.5. For the same compound, in assay [1] (relatively low dose), the “effect on DSS induced enteritis in mice (in words)” value is “significant effect in inhibiting the DSS induced enteritis in mice”. In addition, the “activity in inhibiting the JAK1 kinase compared with Tofacitinib (in words)” value on JAK1 (conclusion from Table 1) is recorded as “higher activity in inhibiting the JAK1 kinase than the positive drug control Tofacitinib”.
